Key:
[1] = Hydrogen sulfide production from heated mackerel meat homogenate (headspace detecting tube); conditions: for Produced Volatile sulfide: hydrogen sulfide in headspace; for Inhibiting rate of volatile sulfide production: hydrogen sulfide, relative to control
Experimental: AA-2G (reagent grade, commercialized by Hayashibara Biochemical Laboratories, Inc.) was dissolved in distilled water to give a solution of a concentration of 10%. A certain amount of the solution and 5 ml of 500 mM phosphate buffer (pH 7.0) were put into measuring flask and filled up to 50 ml to give the test solutions containing AA-2G at the twofold concentration described in Table 1. Also the test solutions containing ascorbic acid were prepared in the same way except for using ascorbic acid (guaranteed regent) in place of AA-2G. Five ml of 500 mM phosphate buffer (pH 7.0) was filled up to 50 ml with distilled water to give control solution. Edible part of commercial mackerel fillet without bone and skin was chopped with trio blender and homogeneously stirred to make minced mackerel. Forty-five grams of the minced mackerel was put into a beaker and added with 45 g of the test solution or control solution to give the samples at the concentration of AA-2G or ascorbic acid described in Table 1. The samples were treated with homogenizer (produced by IKA Works Inc.) at ice-chilled temperature to give the homogenates as the test samples. PH of the homogenates is from 6.21 to 6.38. Ten grams of the above samples were put into 20 ml-vials and sealed with butyl rubber cap and aluminum seal. They were heated in boiled water bath for 15 minutes and cooled in running cool water. After cooled, they were heated on heating block (80° C.) for 10 minutes and the solidified samples were broken with vortex mixer. The amounts of hydrogen sulfide in the headspace gas were measured by hydrogen sulfide detecting tube ([…] No. 4LT, produced by GL Sciences Inc.). Also the inhibiting rate (%) of hydrogen sulfide production were shown in Table 1, which were obtained by subtracting the percentage amounts of hydrogen sulfide produced from 1 g of mackerel meats added with test solutions relative to the amount of hydrogen sulfide produced from 1 g of mackerel meat added with control solution from 100 to obtain.

[2] = Dimethyl-sulfide and dimethyl-disulfide production from heated milk (headspace gas chromatography); conditions: for Produced Dimethyl-disulfide / Produced Dimethyl-sulfide: milk heated 130° C. one minute; for production of volatile sulfides (dimethyl-sulfide and dimethyl-disulfide) from the test solutions / Produced Volatile sulfide: milk; for Inhibiting rate of volatile sulfide production: relative to control milk; for Produced Volatile sulfide: sum of dimethyl-sulfide and dimethyl-disulfide
Experimental: AA-2G (reagent grade, commercialized by Hayashibara Biochemical Laboratories, Inc.) was added in commercial milk to give the concentrations described in Table 2 to make the test solutions. Test solutions containing ascorbic acid were prepared in the same way except for using ascorbic acid (guaranteed regent) in place of AA-2G. The commercial milk was used plain as control. Sensory test of the solutions was performed by 11 panelists to evaluate the taste of each test solution added with AA-2G or ascorbic acid as being different (D) from control or as being the same (S) as control. As a result, eight or more of the 11 panelists gave a same evaluation to each test solution.
One ml of the above samples were put into 20 ml-vials and sealed with butyl rubber cap and aluminum seal. After heated at 130° C. for one minute, the amounts of dimethyl-sulfide and dimethyl-disulfide in the headspace were measured by gas chromatography in conventional way. The sums of them were shown as the amounts of volatile sulfide in Table 2. Also the inhibiting rates (%) of volatile sulfide production were shown in Table 2, which were obtained by subtracting the percentage amounts of volatile sulfide produced from ml of the test solutions relative to the amount of volatile sulfide produced from 1 ml of control (milk) from 100 to obtain.

O=C1O[C@H]([C@@H](O)CO)C(O)=C1O[C@H]1O[C@H](CO)[C@@H](O)[C@H](O)[C@H]1O [AA-2G, α-D-glucopyronosyl-(1→2)-L-ascorbic acid]
hydrogen sulfide production from homogenate of mackerel meat ([1]; AA-2G concentration of 0.1%): enhanced
hydrogen sulfide production from homogenate of mackerel meat ([1]; concentration in a range from 0.0005 to 0.5%, versus control): inhibited
Produced Volatile sulfide ([1]; additive 0.0001% in sample): 44.5 μg/g-mackerel
Produced Volatile sulfide ([1]; additive 0.0005% in sample): 30.7 μg/g-mackerel
Produced Volatile sulfide ([1]; additive 0.001% in sample): 17.4 μg/g-mackerel
Produced Volatile sulfide ([1]; additive 0.005% in sample): 11.5 μg/g-mackerel
Produced Volatile sulfide ([1]; additive 0.01% in sample): 13.2 μg/g-mackerel
Produced Volatile sulfide ([1]; additive 0.025% in sample): 16.1 μg/g-mackerel
Produced Volatile sulfide ([1]; additive 0.05% in sample): 19.9 μg/g-mackerel
Produced Volatile sulfide ([1]; additive 0.1% in sample): 25.9 μg/g-mackerel
Produced Volatile sulfide ([1]; additive 0.5% in sample): 38.2 μg/g-mackerel
Produced Volatile sulfide ([1]; additive 1.0% in sample): 48.5 μg/g-mackerel
Inhibiting rate of volatile sulfide production ([1]; additive 0.0001% in sample): −3.0%
Inhibiting rate of volatile sulfide production ([1]; additive 0.0005% in sample): 28.9%
Inhibiting rate of volatile sulfide production ([1]; additive 0.001% in sample): 59.7%
Inhibiting rate of volatile sulfide production ([1]; additive 0.005% in sample): 73.4%
Inhibiting rate of volatile sulfide production ([1]; additive 0.01% in sample): 69.4%
Inhibiting rate of volatile sulfide production ([1]; additive 0.025% in sample): 62.7%
Inhibiting rate of volatile sulfide production ([1]; additive 0.05% in sample): 53.9%
Inhibiting rate of volatile sulfide production ([1]; additive 0.1% in sample): 40.0%
Inhibiting rate of volatile sulfide production ([1]; additive 0.5% in sample): 11.6%
Inhibiting rate of volatile sulfide production ([1]; additive 1.0% in sample): −12.3%
Produced Dimethyl-disulfide ([2]; additive 0.0001% in sample): 0.54 μg/ml-milk
Produced Dimethyl-sulfide ([2]; additive 0.0001% in sample): 1.30 μg/ml-milk
Produced Dimethyl-disulfide ([2]; additive 0.0005% in sample): 0.43 μg/ml-milk
Produced Dimethyl-sulfide ([2]; additive 0.0005% in sample): 1.12 μg/ml-milk
Produced Dimethyl-disulfide ([2]; additive 0.001% in sample): 0.37 μg/ml-milk
Produced Dimethyl-sulfide ([2]; additive 0.001% in sample): 0.75 μg/ml-milk
Produced Dimethyl-disulfide ([2]; additive 0.005% in sample): 0.14 μg/ml-milk
Produced Dimethyl-sulfide ([2]; additive 0.005% in sample): 0.23 μg/ml-milk
Produced Dimethyl-disulfide ([2]; additive 0.01% in sample): 0.14 μg/ml-milk
Produced Dimethyl-sulfide ([2]; additive 0.01% in sample): 0.11 μg/ml-milk
Produced Dimethyl-disulfide ([2]; additive 0.05% in sample): 0.07 μg/ml-milk
Produced Dimethyl-sulfide ([2]; additive 0.05% in sample): 0.07 μg/ml-milk
Produced Dimethyl-disulfide ([2]; additive 0.1% in sample): 0.07 μg/ml-milk
Produced Dimethyl-sulfide ([2]; additive 0.1% in sample): 0.06 μg/ml-milk
Produced Dimethyl-disulfide ([2]; additive 0.5% in sample): 0.08 μg/ml-milk
Produced Dimethyl-sulfide ([2]; additive 0.5% in sample): 0.10 μg/ml-milk
Produced Dimethyl-disulfide ([2]; additive 2.5% in sample): 0.19 μg/ml-milk
Produced Dimethyl-sulfide ([2]; additive 2.5% in sample): 0.28 μg/ml-milk
production of volatile sulfides (dimethyl-sulfide and dimethyl-disulfide) from the test solutions ([2]; concentration from 0.005 to 0.5%): strongly inhibited
production of volatile sulfides (dimethyl-sulfide and dimethyl-disulfide) from the test solutions ([2]; concentration of 0.0005% or more, compared to control): inhibited
Inhibiting rate of volatile sulfide production ([2]; additive 0.0001% in sample): 2.6%
Inhibiting rate of volatile sulfide production ([2]; additive 0.0005% in sample): 18.0%
Inhibiting rate of volatile sulfide production ([2]; additive 0.001% in sample): 40.7%
Inhibiting rate of volatile sulfide production ([2]; additive 0.005% in sample): 80.4%
Inhibiting rate of volatile sulfide production ([2]; additive 0.01% in sample): 86.8%
Inhibiting rate of volatile sulfide production ([2]; additive 0.05% in sample): 92.6%
Inhibiting rate of volatile sulfide production ([2]; additive 0.1% in sample): 93.1%
Inhibiting rate of volatile sulfide production ([2]; additive 0.5% in sample): 90.5%
Inhibiting rate of volatile sulfide production ([2]; additive 2.5% in sample): 75.1%
Produced Volatile sulfide ([2]; additive 0.0001% in sample): 1.94 µg/mL
Produced Volatile sulfide ([2]; additive 0.0005% in sample): 1.55 µg/mL
Produced Volatile sulfide ([2]; additive 0.001% in sample): 1.12 µg/mL
Produced Volatile sulfide ([2]; additive 0.005% in sample): 0.37 µg/mL
Produced Volatile sulfide ([2]; additive 0.01% in sample): 0.25 µg/mL
Produced Volatile sulfide ([2]; additive 0.05% in sample): 0.14 µg/mL
Produced Volatile sulfide ([2]; additive 0.1% in sample): 0.13 µg/mL
Produced Volatile sulfide ([2]; additive 0.5% in sample): 0.18 µg/mL
Produced Volatile sulfide ([2]; additive 2.5% in sample): 0.47 µg/mL
